The values that follow come from patent publication US5654309A, “Pyridopyrimidine derivatives, their production and use” (Takeda Chemical Industries, Ltd., priority 1992, dated 1997).

Molecules are shown by their SMILES. pIC50: −log10 of the molar value.

Experiment [1] addresses T1, Endothelin-A Receptor (human) (Homo sapiens, UniProt P25101).
T1 construct: expressed in transfected cells; host or cells: Sf9 insect cells
T1 sequence (P25101 21-427): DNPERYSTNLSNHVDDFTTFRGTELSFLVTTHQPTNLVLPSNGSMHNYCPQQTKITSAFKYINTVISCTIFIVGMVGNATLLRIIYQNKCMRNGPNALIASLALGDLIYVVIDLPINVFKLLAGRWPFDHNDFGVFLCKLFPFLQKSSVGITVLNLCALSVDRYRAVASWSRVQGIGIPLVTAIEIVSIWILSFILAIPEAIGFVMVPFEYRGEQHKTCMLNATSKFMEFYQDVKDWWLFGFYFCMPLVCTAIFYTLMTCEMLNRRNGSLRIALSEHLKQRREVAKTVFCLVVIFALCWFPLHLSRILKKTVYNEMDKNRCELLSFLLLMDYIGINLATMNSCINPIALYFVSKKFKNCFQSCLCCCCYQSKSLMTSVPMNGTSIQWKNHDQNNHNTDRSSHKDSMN
The experiment is described as follows: Endothelin Receptor-Assay, [125I]endothelin-1 binding, insect cell (Sf9) membrane having human endothelin-A receptors. The note with it: human ETA, 25° C., 60 minutes, concentration causing PMB=50%. The procedure: (§1) Endothelin (ET) receptors were prepared by diluting fractions of insect cell (Sf9) membrane having human endothelin-A (ETA) receptors or human endothelin-B (ETB) receptors appeared, with an assay buffer [20 mM Tris-HCl, 2 mM EGTA (ethyleneglycol bis(2-aminoethylether) tetra acetic acid), 5 mM magnesium acetate, 0.1% BSA (bovine serum albumin), 0.03% NAN3, 0.5 mM PMS F (phenyl methyl sulfonyl fluoride), 20 μg/ml leupeptin, 4 μg/ml E-64 (products of the Peptide Institute), 1 μg/ml pepstatin, (pH 7.2)] respectively in a concentration of 1.4 μg/ml in the former case and 0.7 μg/ml in the latter case.
(§2) To 100 μl of each portion was added 5 nM [^125 I] endothelin-1 (2 μl). A dimethylsulfoxide solution (3 μl) of the sample was added thereto and incubated at 25° C. for 60 minutes.
(§3) And, to determine the maximum binding amount (B0) and non-specific binding amount (NSB), lots to which a dimethyl sulfoxide solution (3 μl) or a dimethyl sulfoxide solution (3 μl) containing endothelin-1 (10^-5 M) had been added, were also incubated.
(§4) These lots were supplemented with 0.05% CHAPS (3-[(3-[…])dimethylammonio]-1-propanesulfonate)-assay buffer (1.5 ml), subjected to filtration through a glass fiber filter GF/F (trade name; product of Wattman Ltd. (England)), and then washed with the same buffer (1.5 ml).
(§5) Radioactivity on the filter was counted in a gamma-counter to determine the Percent Maximum Binding (PMB) in accordance with the aforesaid calculation formula. The concentration causing PMB=50% was determined as IC50 value.

For experiment [2], the target named is T2, Endothelin-B Receptor (human) (Homo sapiens, UniProt P24530).
T2 construct: expressed in transfected cells; host or cells: Sf9 insect cells
T2 sequence (P24530 27-442): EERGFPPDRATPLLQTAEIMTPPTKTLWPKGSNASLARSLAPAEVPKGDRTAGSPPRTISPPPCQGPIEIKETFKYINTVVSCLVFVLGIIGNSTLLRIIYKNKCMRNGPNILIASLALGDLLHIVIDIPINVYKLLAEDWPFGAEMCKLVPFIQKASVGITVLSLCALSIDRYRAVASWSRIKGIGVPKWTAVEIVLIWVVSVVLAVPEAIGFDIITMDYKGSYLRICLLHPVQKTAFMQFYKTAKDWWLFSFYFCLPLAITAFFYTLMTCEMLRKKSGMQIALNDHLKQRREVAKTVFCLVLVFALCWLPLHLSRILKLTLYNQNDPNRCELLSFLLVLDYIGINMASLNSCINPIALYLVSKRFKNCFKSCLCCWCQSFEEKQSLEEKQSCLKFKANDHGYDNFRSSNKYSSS
The experiment is described as follows: Endothelin Receptor-Assay, [125I]endothelin-1 binding, insect cell (Sf9) membrane having human endothelin-B receptors. The note with it: human ETB, 25° C., 60 minutes, concentration causing PMB=50%. The procedure: as §1, §2, §3, §4, §5

Experiment [3] concerns the target T3, Endothelin-B Receptor (bovine) (Bos taurus, UniProt P28088).
T3 construct: a fraction of bovine cerebral membrane; from tissue; host or cells: bovine cerebral membrane
T3 sequence (P28088 27-441): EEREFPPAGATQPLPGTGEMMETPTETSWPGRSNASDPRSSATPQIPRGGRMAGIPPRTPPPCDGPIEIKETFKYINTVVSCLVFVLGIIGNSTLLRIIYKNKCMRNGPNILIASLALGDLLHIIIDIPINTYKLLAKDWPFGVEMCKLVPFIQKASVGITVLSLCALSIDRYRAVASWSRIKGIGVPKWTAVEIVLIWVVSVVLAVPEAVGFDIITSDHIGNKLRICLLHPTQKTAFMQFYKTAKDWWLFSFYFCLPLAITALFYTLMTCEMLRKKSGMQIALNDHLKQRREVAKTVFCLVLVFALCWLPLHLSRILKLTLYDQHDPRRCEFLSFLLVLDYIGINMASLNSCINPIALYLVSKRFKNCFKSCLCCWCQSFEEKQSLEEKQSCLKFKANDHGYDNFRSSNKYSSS
Briefly: Endothelin Receptor-Assay, [125I]endothelin-1 binding, bovine cerebral membrane. The note with it: 25° C., 60 minutes, concentration causing PMB=50%. The procedure:
Endothelin-B receptor was prepared by diluting a fraction of bovine cerebral membrane with the same assay buffer as mentioned above to make a solution having a concentration of 180 μg/ml.
as §2
And, to determine the maximum binding amount (B0) and non-specific binding amount (NSB), lots to which a dimethyl sulfoxide solution (3 μl) or a dimethyl sulfoxide solution (3 μl) containing endothelin-1 (10^-5 M) was added were also incubated.
as §4
(§6) Radioactivity on the filter was counted in a gamma-counter to determine the Percent Maximum Binding (PMB) in accordance with the following calculation formula.
The concentration causing PMB=50% was determined as IC50 value.
PMB=[(B-NSB)/(B0 -NSB)]×100

For experiment [4], the target named is T4, Endothelin-A Receptor (porcine) (Sus scrofa, UniProt Q29010).
T4 construct: a fraction of porcine cardiac ventricular muscle membrane; from tissue; host or cells: porcine cardiac ventricular muscle membrane
T4 sequence (Q29010 21-427): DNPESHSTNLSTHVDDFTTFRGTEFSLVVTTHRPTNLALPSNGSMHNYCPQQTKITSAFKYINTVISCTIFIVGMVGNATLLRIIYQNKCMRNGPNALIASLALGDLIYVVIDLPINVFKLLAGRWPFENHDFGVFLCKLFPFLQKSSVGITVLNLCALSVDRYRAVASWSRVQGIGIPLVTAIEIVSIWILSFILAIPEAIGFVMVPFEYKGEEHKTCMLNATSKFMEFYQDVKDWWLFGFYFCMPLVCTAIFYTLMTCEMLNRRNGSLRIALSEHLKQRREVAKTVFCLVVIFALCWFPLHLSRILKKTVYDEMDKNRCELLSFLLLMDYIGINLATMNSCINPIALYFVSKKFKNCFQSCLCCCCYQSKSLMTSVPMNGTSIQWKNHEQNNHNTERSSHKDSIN
Briefly: Endothelin Receptor-Assay, [125I]endothelin-1 binding, porcine cardiac ventricular muscle membrane. The note with it: 25° C., 60 minutes, concentration causing PMB=50%. The procedure: Endothelin-A receptors was prepared by diluting a fraction of porcine cardiac ventricular muscle membrane with an assay buffer [20 mM Tris-HCl, 2 mM EGTA (ethyleneglycol bis(2-aminoethylether) tetra acetic acid), 5 mM magnesium acetate, 0.1% BSA (bovine serum albumin), 0.03% NAN3, 0.5 mM PMSF (phenyl methyl sulfonyl fluoride), 20 μg/ml leupeptin, 4 μg/ml E-64 (products of the Peptide Institute), 1 μg/ml pepstatin, (pH 7.2)] to make a solution of the fraction of porcine cardiac ventricular membrane (12 μg/ml).
as §2
And, to determine the maximum binding amount (B0) and non-specific binding amount (NSB), lots to which a dimethyl sulfoxide solution (3 μl) or a dimethyl sulfoxide solution (3 μl) containing endothelin-1 (10^-5 M) was added were also incubated. […]
as §6
The concentration causing PMB=50% was determined as IC50 value. […]

`COc1ccccc1Cn1c(=O)n(CC(=O)O)c(=O)c2c(-c3ccc4ccccc4n3)c(C(=O)OCCC#N)c(C(C)C)nc21` [Example 29, 2,4(1H,3H)-dioxo-6-cyanoethoxycarbonyl-7-isopropyl-1-(2-methoxybenzyl)-5-(2-quinolyl)pyrido[2,3-d]pyrimidine-3-acetic Acid]: the negative logarithm of the IC50 (pIC50) in experiment [1] is 6.24; in experiment [2], 4.02.

`CCOC(=O)c1c(C)nc2c(c1-c1ccc(OC)cc1)c(=O)n(CC(=O)O)c(=O)n2Cc1ccccc1OC` [Example 12, 2,4(1H,3H)-dioxo-6-ethoxycarbonyl-7-methyl-1-(2-methoxybenzyl)-5-(4-methoxyphenyl)pyrido[2,3-d]pyrimidine-3-acetic Acid]: the pIC50 in experiment [1] was 4.66; in experiment [3], 3.89; in experiment [4], 4.74.

For the molecule `COc1ccccc1Cn1c(=O)n(CC(=O)O)c(=O)c2c(-c3ccc4ccccc4n3)c(C(=O)OCC(C)C)c(C(C)C)nc21` [Example 27, 2,4(1H,3H)-dioxo-6-isobutoxycarbonyl-7-isopropyl-1-(2-methoxybenzyl)-5-(2-quinolyl)pyrido[2,3-d]pyrimidine-3-acetic Acid], the pIC50 is 5.35 in experiment [1] and 4.33 in experiment [2].

Consider `COc1ccccc1Cn1c(=O)n(CC(=O)O)c(=O)c2c(-c3cc(=O)c4ccccc4[nH]3)c(C(=O)O)c(C(C)C)nc21` [Example 20], for which the results for the pIC50 in experiment [1] and in experiment [2] were 6.92 and 4.85, respectively.

With `CCOC(=O)c1c(C(C)C)nc2c(c1-c1ccc(C)cc1)c(=O)n(CC(=O)O)c(=O)n2Cc1ccccc1OC` [Example 10, 2,4(1H,3H)-dioxo-6-ethoxycarbonyl-7-isopropyl-1-(2-methoxbenzyl)-5-(4-tolyl)pyrido[2,3-d]pyrimidine-3-acetic Acid], the pIC50 in experiment [1] was 4.96; in experiment [3], 4.19; in experiment [4], 4.96.

`COc1ccccc1Cn1c(=O)n(CC(=O)O)c(=O)c2c(-c3ccc4ccccc4n3)c(C(=O)O)c(C(C)C)nc21` [Example 14, 2,4(1H,3H)-dioxo-6-carboxy-7-isopropyl-1-(2-methoxybenzyl)-5-(2-quinolyl)pyrido[2,3-d]pyrimidine-3-acetic Acid]: the pIC50 in experiment [1] is 5.43; in experiment [2] it was 4.17.

Turning to `COc1ccc(Cn2c(=O)n(CC(=O)O)c(=O)c3c(-c4ccc5ccccc5n4)c(C(=O)O)c(C(C)C)nc32)c(OC)c1` [Example 15 Compound No. 4], the pIC50 in experiment [1] was 6.05; in experiment [2], 4.02.

As to `COc1ccccc1Cn1c(=O)n(CC(=O)OC(C)(C)C)c(=O)c2c(-c3cc(=O)c4ccccc4[nH]3)c(C(=O)O)c(C(C)C)nc21` [Example 18, t-Butyl [2,4(1H,3H)-dioxo-6-carboxy-7-isopropyl-1-(2-methoxbenzyl)-5-[2-(4-quinolonyl)]pyrido[2,3-d]pyrimidine]-3-acetate], the pIC50 in experiment [1] is 6.82; in experiment [2] it was 4.16.

In the case of `COc1ccccc1Cn1c(=O)n(CC(=O)OC(C)(C)C)c(=O)c2c(-c3ccc4ccccc4n3)c(C(=O)O)c(C(C)C)nc21` [Example 16, t-Butyl [2,4(1H,3H)-dioxo-6-carboxy-7-isopropyl-1-(2-methoxybenzyl)-5-(2-quinolyl)pyrido[2,3-d]pyrimidine]-3-acetate], the results for the pIC50 in experiment [1] and in experiment [2] were 5.80 and 4.16, respectively.

For `CCOC(=O)c1c(C(C)C)nc2c(c1-c1cc(=O)c3ccccc3[nH]1)c(=O)n(CC(=O)O)c(=O)n2Cc1ccccc1OC` [Example 23, 2,4(1H,3H)-dioxo-6-ethoxycarbonyl-7-isopropyl-1-(2-methoxybenzyl)-5-[2-(4-quinolonyl)]pyrido[2,3-d]pyrimidine-3-acetic Acid], the pIC50 is 6.04 in experiment [1] and 5.37 in experiment [2].

On to `CCOC(=O)c1c(C(C)C)nc2c(c1-c1ccc3ccccc3n1)c(=O)n(CC(=O)O)c(=O)n2Cc1ccccc1OC` [Example 28 Compound No. 8], for which the pIC50 in experiment [1] was 5.96; in experiment [2], 4.12.

In the case of `CCOC(=O)Cn1c(=O)c2c(-c3cc(=O)c4ccccc4[nH]3)c(C(=O)O)c(C(C)C)nc2n(Cc2ccccc2OC)c1=O` [Example 19 Compound No. 2], the pIC50 is 7.15 in experiment [1] and 4.19 in experiment [2].

As for `CSc1ccccc1Cn1c(=O)n(CC(=O)O)c(=O)c2c(-c3cc(=O)c4ccccc4[nH]3)c(C(=O)O)c(C(C)C)nc21` [Example 21 Compound No. 9], the pIC50 in experiment [1] was 7.25; in experiment [2], 4.85.

Turning to `CCOC(=O)Cn1c(=O)c2c(-c3cc(=O)c4ccccc4[nH]3)c(C(=O)O)c(C(C)C)nc2n(Cc2ccccc2SC)c1=O` [Example 31, Ethyl [2,4(1H,3H)-dioxo-6-carboxy-7-isopropyl-1-(2-methylthiobenzyl)-5-[2-(4-quinolonyl)]pyrido[2,3-d]pyrimidine]-3-acetate], the figures for the pIC50 in experiment [1] and in experiment [2] were 6.92 and 4.06, respectively.

Take `CCOC(=O)Cn1c(=O)c2c(-c3ccc4ccccc4n3)c(C(=O)O)c(C(C)C)nc2n(Cc2ccccc2OC)c1=O` [Example 17 Compound No. 1]: the results for the pIC50 in experiment [1] and in experiment [2] were 6.15 and 4.72, respectively.

With `CCOC(=O)Cn1c(=O)c2c(-c3cc(=O)c4ccccc4[nH]3)c(C(=O)O)c(C(C)C)nc2n(Cc2ccc(OC)cc2OC)c1=O` [Example 19 Compound No. 5], the results for the pIC50 in experiment [1] and in experiment [2] were 6.01 and 4.64, respectively.
